≈ marks a conversion by molar mass, not a printed value.
Key:
[1] = design: method as in PMID 32292045; settings: poor bioavailability; cited from earlier work
[2] = Determination of aqueous solubility (vortex 1 h at 25 °C, centrifugation, filtration, HPLC); type: physicochemical; settings: for solubility at 1 h: thermodynamic from solid; for Aqueous solubility compared with vitexin: at different pH
Procedure: HPLC was performed with an Agilent® 1100 series HPLC system (Santa Clara, CA, USA) equipped with a gradient pump (Waters 600, Waters, Milford, MA, USA). The stationary phase was a C18 column (Sharpsil H-C18, 5 μm, 4.6 i.d. × 250 mm, Sharpsil, Bei-jing, China), and the mobile phase was 1% acetic acid in water (A) and methanol (B). The elution condition was a linear gradient from 0 min with 40% B to 20 min with 70% B; an isocratic elution from 20 min to 25 min with 70% B; a linear gradient from 25 min with 70% B to 28 min with 40% B; and an isocratic elution from 28 min to 35 min with 40% B. All elutions were performed at a flow rate of 1 mL/min. The sample volume was 10 µL. The detection condition was set at 254 nm.
The aqueous solubility of vitexin and its glucoside derivatives was examined as follows. Each compound was vortexed in double-deionized H2O, PB at pH 6, or pH 8, for 1 h at 25 °C. The mixture was centrifuged at 10,000× g for 30 min at 25 °C. The supernatant was filtered through a 0.2 µm nylon membrane, mixed with an equal volume of methanol, and analyzed by HPLC. The concentration of the tested compounds was determined on the basis of their peak areas, using calibration curves prepared by HPLC analyses of authentic samples.

[3] = PB (buffer), aqueous buffer, PB at pH 6, 25 °C
[4] = PB (buffer), aqueous buffer, PB at pH 8, 25 °C
[5] = double-deionized water, water, Deionized H2O at pH 7, 25 °C

| SMILES | Absorption in the gastrointestinal tract [1] | Fold increase in aqueous solubility relative to vitexin in deionized H2O (normalized to 1) ([2]; Deionized H2O at pH 7) | solubility at 1 h [2, 3] | solubility at 1 h [2, 4] | Fold increase in aqueous solubility relative to vitexin in deionized H2O (normalized to 1) ([2]; PB at pH 6) | Fold increase in aqueous solubility relative to vitexin in deionized H2O (normalized to 1) ([2]; PB at pH 8) | solubility at 1 h [2, 5] | Aqueous solubility compared with vitexin [2] |
| --- | --- | --- | --- | --- | --- | --- | --- | --- |
| O=c1cc(-c2ccc(O)cc2)oc2c([C@@H]3O[C@H](CO)[C@@H](O)[C@H](O)[C@H]3O)c(O)cc(O)c12 [Vitexin, apigenin-8-C-glucoside] | approximately 5% | 1 | 7.1 ± 1.2 µg/mL (≈ 16.4 µM) | 157 ± 3.1 µg/mL (≈ 364 µM) | 0.2 | 4.2 | 37.2 ± 2.8 µg/mL (≈ 86 µM) |  |
| O=c1cc(-c2ccc(O)cc2)oc2c(C3OC(CO)C(O)C(O)C3O)c(O)cc(OC3OC(CO)C(O)C(O)C3O)c12 (stereo not drawn) [Vitexin-5-O-β-glucoside (2), vitexin-5-O-β-glucoside] |  |  | 444 ± 45 µg/mL (≈ 747 µM) | 767 ± 21.6 µg/mL (≈ 1290 µM) | 11.9 | 20.6 | 735 ± 51.7 µg/mL (≈ 1240 µM) | higher than that of vitexin |
| O=c1cc(-c2ccc(OC3OC(CO)C(O)C(O)C3O)cc2)oc2c(C3OC(CO)C(O)C(O)C3O)c(O)cc(O)c12 (stereo not drawn) [Vitexin-4′-O-β-glucoside (1), vitexin-4′-O-β-glucoside] |  | 25.3 | 943 ± 212 µg/mL (≈ 1590 µM) | 1800 ± 229 µg/mL (≈ 3030 µM) | 25.3 | 48.4 | 941 ± 68.7 µg/mL (≈ 1580 µM) | higher than that of vitexin |

Source: PMC8539612, “Enzymatic Synthesis of Novel Vitexin Glucosides” (Molecules, 2021)
